From patent publication US12522576B2, “Polymorphs of D9-THC naphthoylester” (priority 2019, dated 2026)
In brackets after ≈: the same amount, converted by molar mass.

Key:
[1] = D9 solubility in the liquors at isolation temperature; format: physicochemical; settings: organic solvent or mixture, thermodynamic from solid
Protocol: At the end of each experiment, suspensions were equilibrated at the isolation temperature (25 or 5° C.) for at least 18 hours and the solids and liquors separated by centrifugation at the isolation temperature. The Exo/D9/D8 ratio (Exo-D9-THC-naphthoylester impurity/D9-THC-naphthoylester/D8-THC-naphthoylester) was determined in both the isolated solids and the liquors, from which the % Exo-depletion in the isolated solids was calculated. Several solids were also isolated at elevated temperatures to assess the impact of the isolation temperature on Exo-impurity depletion.
In addition, the solubility of D9 in the liquors was determined in most of the explored solvents and used to estimate the yield.

[2] = Competitive ripening (relative thermodynamic stability of non-solvated forms)
Gravimetric solubility = format: physicochemical; settings: thermodynamic from solid
Protocol: Additional solids or solvents were added to visual solubility samples with vials less than 100 mg/mL to produce slurries at 20 and 50° C. for the subsequent equilibrium solubility assessment. The slurries were stirred at 20 and 50° C. overnight, filtered through 0.2 μm syringe filters and evaporated to dryness under reduced pressure at ambient temperature. Gravimetric solubility was calculated by dividing the dry solids residue mass (mg) by the solvent mass (g). The mg/g solubility values were then converted to mg/mL using solvent density.
The solubility of Group D acetone and DMF solvates were assessed in the corresponding solvents.

CCCCCc1cc(OC(=O)c2ccc3ccccc3c2)c2c(c1)OC(C)(C)[C@@H]1CCC(C)=C[C@@H]21 [Form B, (6aR,10aR)-6a,7,8,10a-tetrahydro-6,6,9-trimethyl-3-pentyl-6H-dibenzo[b,d]pyran-1-yl ester]
solubility ([1]; MEK/MeOH (3:7), 5 °C, batch 5, MEK/MeOH (3:7), seed G, heat T 25, isolation T 5, SP 11, 30.0 mL/g): 15.8 mg/mL (≈ 33.7 mM)
solubility ([1]; MEK/MeOH (3:7), 25 °C, batch 5, MEK/MeOH (3:7), seed G, heat T 25, isolation T 25, SP 7, 30.0 mL/g): 16.8 mg/mL (≈ 35.8 mM)
solubility ([1]; MeOH, 25 °C, batch 5, MeOH, seed E/G, heat T 50, isolation T 25, SP 3, 9.8 mL/g): 5 mg/mL (≈ 10.7 mM)
solubility ([1]; Toluene/EtOH (5:95), 25 °C, batch 5, Toluene/EtOH (5:95), seed H, heat T 55, isolation T 25, SP 21, 12.0 mL/g): 10.3 mg/mL (≈ 22 mM)
solubility ([1]; Toluene/MeOH (1:9), 5 °C, batch 5, Toluene/MeOH (1:9), seed G, heat T 40, isolation T 5, SP 10, 30.0 mL/g): 8.7 mg/mL (≈ 18.6 mM)
solubility ([1]; crystallisation liquors over suspended solid, 5 °C, batch 5, p-Xylene/MeOH (1:9), seed G, heat T 25, isolation T 5, SP 11, 40.0 mL/g): 9.2 mg/mL (≈ 19.6 mM)
solubility ([1]; crystallisation liquors over suspended solid, 25 °C, batch 2, IPA/water (95:5), seed G/H, heat T 55, isolation T 25, SP 13, 10.0 mL/g): 5.6 mg/mL (≈ 11.9 mM)
solubility ([1]; crystallisation liquors over suspended solid, 25 °C, batch 2, IPA/water (99:1), seed G/H, heat T 55, isolation T 25, SP 13, 10.0 mL/g): 7.3 mg/mL (≈ 15.6 mM)
solubility ([1]; crystallisation liquors over suspended solid, 25 °C, batch 5, Anisole/MeOH (1:9), seed G, heat T 40, isolation T 25, SP 8, 30.0 mL/g): 9.6 mg/mL (≈ 20.5 mM)
solubility ([1]; crystallisation liquors over suspended solid, 25 °C, batch 5, Cyclohexanone/IPA (1:9), seed G/H, heat T 45, isolation T 25, SP 15, 2.5 mL/g): 59.2 mg/mL (≈ 126 mM)
solubility ([1]; crystallisation liquors over suspended solid, 25 °C, batch 5, EtOAc/IPA (1:9), seed G/H, heat T 55, isolation T 25, SP 15, 7.4 mL/g): 15.1 mg/mL (≈ 32.2 mM)
solubility ([1]; crystallisation liquors over suspended solid, 25 °C, batch 5, EtOAc/MeOH (1:3), seed G, heat T 40, isolation T 25, SP 8, 30.0 mL/g): 11.3 mg/mL (≈ 24.1 mM)
solubility ([1]; crystallisation liquors over suspended solid, 25 °C, batch 5, EtOH, seed E/G, heat T 50, isolation T 25, SP 3, 9.6 mL/g): 6.9 mg/mL (≈ 14.7 mM)
solubility ([1]; crystallisation liquors over suspended solid, 25 °C, batch 5, MEK/EtOH (1:9), seed G/H, heat T 55, isolation T 25, SP 15, 10.0 mL/g): 11.2 mg/mL (≈ 23.9 mM)
solubility ([1]; crystallisation liquors over suspended solid, 25 °C, batch 5, Toluene/MeOH (1:9), seed G, heat T 40, isolation T 25, SP 8, 30.0 mL/g): 8.4 mg/mL (≈ 17.9 mM)
solubility ([1]; crystallisation liquors over suspended solid, 25 °C, batch 5, Toluene/MeOH (3:7), seed G, heat T 40, isolation T 25, SP 3, 5.5 mL/g): 53.5 mg/mL (≈ 114 mM)
solubility ([1]; crystallisation liquors over suspended solid, 25 °C, batch 5, n-BuOH, seed E/G, heat T 50, isolation T 25, SP 3, 9.8 mL/g): 14.8 mg/mL (≈ 31.6 mM)
solubility ([1]; crystallisation liquors over suspended solid, 25 °C, batch 5, n-BuOH, seed G, heat T 40, isolation T 25, SP 8, 10.0 mL/g): 16.7 mg/mL (≈ 35.6 mM)
solubility ([1]; liquors of the equilibrated crystallisation suspension, 25 °C, batch 2, IPA/water (95:5), seed G/H, heat T 55, isolation T 25, 10.0 mL/g, SP 13, Exp 43): 5.6 mg/mL (≈ 11.9 mM)
solubility ([1]; liquors of the equilibrated crystallisation suspension, 25 °C, batch 2, IPA/water (99:1), seed G/H, heat T 55, isolation T 25, 10.0 mL/g, SP 13, Exp 45): 7.3 mg/mL (≈ 15.6 mM)
solubility ([1]; liquors of the equilibrated crystallisation suspension, 25 °C, batch 5, Cyclohexanone/EtOH (1:9), seed G/H, heat T 55, isolation T 25, 5.0 mL/g, SP 16, Exp 32): 21.1 mg/mL (≈ 45 mM)
solubility ([1]; liquors of the equilibrated crystallisation suspension, 25 °C, batch 5, Cyclohexanone/IPA (1:9), seed G/H, heat T 45, isolation T 25, 2.5 mL/g, SP 15, Exp 39): 59.2 mg/mL (≈ 126 mM)
solubility ([1]; liquors of the equilibrated crystallisation suspension, 25 °C, batch 5, Cyclohexanone/MeOH (1:9), seed G/H, heat T 60, isolation T 25, 10.0 mL/g, SP 12, Exp 30): 7.6 mg/mL (≈ 16.2 mM)
solubility ([1]; liquors of the equilibrated crystallisation suspension, 25 °C, batch 5, EtOAc/EtOH (1:9), seed H, heat T 55, isolation T 25, 10.0 mL/g, SP 21, Exp 28): 12 mg/mL (≈ 25.6 mM)
solubility ([1]; liquors of the equilibrated crystallisation suspension, 25 °C, batch 5, EtOAc/IPA (1:9), seed G/H, heat T 55, isolation T 25, 7.4 mL/g, SP 15, Exp 35): 15.1 mg/mL (≈ 32.2 mM)
solubility ([1]; liquors of the equilibrated crystallisation suspension, 25 °C, batch 5, IPA/water (95:5), seed G/H, heat T 60, isolation T 25, 10.0 mL/g, SP 12, Exp 29): 4.5 mg/mL (≈ 9.6 mM)
solubility ([1]; liquors of the equilibrated crystallisation suspension, 25 °C, batch 5, IPA, seed G/H, heat T 50, isolation T 25, 10.0 mL/g, SP 14, Exp 31): 7.3 mg/mL (≈ 15.6 mM)
solubility ([1]; liquors of the equilibrated crystallisation suspension, 25 °C, batch 5, MEK/EtOH (1:9), seed G/H, heat T 55, isolation T 25, 10.0 mL/g, SP 15, Exp 40): 11.2 mg/mL (≈ 23.9 mM)
solubility ([1]; liquors of the equilibrated crystallisation suspension, 25 °C, batch 5, MEK/IPA (1:9), seed G/H, heat T 55, isolation T 25, 5.0 mL/g, SP 15, Exp 25): 17.2 mg/mL (≈ 36.7 mM)
solubility ([1]; liquors of the equilibrated crystallisation suspension, 25 °C, batch 5, MEK/MeOH (1:9), seed G/H, heat T 60, isolation T 25, 10.0 mL/g, SP 12, Exp 27): 4.5 mg/mL (≈ 9.6 mM)
solubility ([1]; liquors of the equilibrated crystallisation suspension, 25 °C, batch 5, Toluene/EtOH (5:95), seed H, heat T 55, isolation T 25, 12.0 mL/g, SP 21, Exp 33): 10.3 mg/mL (≈ 22 mM)
solubility ([1]; n-BuOH/MeOH (1:3), 25 °C, batch 5, n-BuOH/MeOH (1:3), seed E/G, heat T 50, isolation T 25, SP 3, 9.4 mL/g): 5.6 mg/mL (≈ 11.9 mM)
solubility ([1]; n-BuOH/MeOH (1:3), 25 °C, batch 5, n-BuOH/MeOH (1:3), seed G, heat T 60, isolation T 25, SP 9, 10.0 mL/g): 6 mg/mL (≈ 12.8 mM)
solubility ([1]; p-Xylene/MeOH (1:9), 25 °C, batch 5, p-Xylene/MeOH (1:9), seed G, heat T 25, isolation T 25, SP 7, 40.0 mL/g): 9.8 mg/mL (≈ 20.9 mM)
Relative thermodynamic stability [2]: metastable form
Nature (thermodynamic stability of crystal form) ([2]; Table 6 summary): Metastable
solubility (Gravimetric solubility; 20 °C, organic solvent or mixture, solvent Acetone/MeOH (1:3), RT, read-out: Gravimetric Solubility at RT): ~9 mg/mL (≈ 19.2 mM)
solubility (Gravimetric solubility; 20 °C, organic solvent or mixture, solvent BuOH/MeOH (1:3), RT, read-out: Gravimetric Solubility at RT): ~6 mg/mL (≈ 12.8 mM)
solubility (Gravimetric solubility; 20 °C, organic solvent or mixture, solvent EtOH, RT, read-out: Gravimetric Solubility at RT): ~7 mg/mL (≈ 14.9 mM)
solubility (Gravimetric solubility; 20 °C, organic solvent or mixture, solvent Heptane, RT, read-out: Gravimetric Solubility at RT): ~33 mg/mL (≈ 70.4 mM)
solubility (Gravimetric solubility; 20 °C, organic solvent or mixture, solvent IPA:water (9:1), RT, read-out: Gravimetric Solubility at RT): ~3 mg/mL (≈ 6.4 mM)
solubility (Gravimetric solubility; 20 °C, organic solvent or mixture, solvent IPA, RT, read-out: Gravimetric Solubility at RT): ~7 mg/mL (≈ 14.9 mM)
solubility (Gravimetric solubility; 20 °C, organic solvent or mixture, solvent MeCN, RT, read-out: Gravimetric Solubility at RT): ~14 mg/mL (≈ 29.9 mM)
solubility (Gravimetric solubility; 20 °C, organic solvent or mixture, solvent MeOH, RT, read-out: Gravimetric Solubility at RT): ~3 mg/mL (≈ 6.4 mM)
solubility (Gravimetric solubility; 20 °C, solvent Water, RT, read-out: Gravimetric Solubility at RT): < 1 mg/mL
solubility (Gravimetric solubility; organic solvent or mixture, solvent Acetone/MeOH (1:3), 50° C., read-out: Gravimetric Solubility at 50° C.): ~41 mg/mL (≈ 87.5 mM)
solubility (Gravimetric solubility; organic solvent or mixture, solvent BuOH/MeOH (1:3), 50° C., read-out: Gravimetric Solubility at 50° C.): ~24 mg/mL (≈ 51.2 mM)
solubility (Gravimetric solubility; organic solvent or mixture, solvent EtOH, 50° C., read-out: Gravimetric Solubility at 50° C.): ~29 mg/mL (≈ 61.9 mM)
solubility (Gravimetric solubility; organic solvent or mixture, solvent IPA:water (9:1), 50° C., read-out: Gravimetric Solubility at 50° C.): ~18 mg/mL (≈ 38.4 mM)
solubility (Gravimetric solubility; organic solvent or mixture, solvent IPA, 50° C., read-out: Gravimetric Solubility at 50° C.): ~45 mg/mL (≈ 96 mM)
solubility (Gravimetric solubility; organic solvent or mixture, solvent MeCN, 50° C., read-out: Gravimetric Solubility at 50° C.): ~35 mg/mL (≈ 74.7 mM)
solubility (Gravimetric solubility; organic solvent or mixture, solvent MeOH, 50° C., read-out: Gravimetric Solubility at 50° C.): ~12 mg/mL (≈ 25.6 mM)
solubility (Gravimetric solubility; solvent Water, 50° C., read-out: Gravimetric Solubility at 50° C.): < 1 mg/mL
